Measured values reported in ChEMBL document CHEMBL4680261, “DDX3X inhibitors, an effective way to overcome HIV-1 resistance targeting host proteins” (Eur J Med Chem, 2020).
pIC50: −log10 of the molar value. One block for each molecule: values may come before it.

Legend:
[1] = test system: Human immunodeficiency virus 1; experiment: (§1) Antiviral activity against HIV-1 NL4-3 infected in human TZM-bl cells infected with supernatants from virus-infected human H9 cells treated with compound for 72 hrs assessed as reduction in luciferase expression measured after 48 hrs by luciferase reporter gene assay based BiCycle assay; type: functional, organism-based; settings: Human immunodeficiency virus 1, NL4-3
[2] = molecular target: ATP-dependent RNA helicase DDX3X (Homo sapiens, UniProt O00571); experiment: Inhibition of human DDX3X using dsRNA as substrate measured every 30 sec for 40 mins by FRET assay; settings: for pIC50: read-out: IC50
Chain of ATP-dependent RNA helicase DDX3X (O00571 whole entry): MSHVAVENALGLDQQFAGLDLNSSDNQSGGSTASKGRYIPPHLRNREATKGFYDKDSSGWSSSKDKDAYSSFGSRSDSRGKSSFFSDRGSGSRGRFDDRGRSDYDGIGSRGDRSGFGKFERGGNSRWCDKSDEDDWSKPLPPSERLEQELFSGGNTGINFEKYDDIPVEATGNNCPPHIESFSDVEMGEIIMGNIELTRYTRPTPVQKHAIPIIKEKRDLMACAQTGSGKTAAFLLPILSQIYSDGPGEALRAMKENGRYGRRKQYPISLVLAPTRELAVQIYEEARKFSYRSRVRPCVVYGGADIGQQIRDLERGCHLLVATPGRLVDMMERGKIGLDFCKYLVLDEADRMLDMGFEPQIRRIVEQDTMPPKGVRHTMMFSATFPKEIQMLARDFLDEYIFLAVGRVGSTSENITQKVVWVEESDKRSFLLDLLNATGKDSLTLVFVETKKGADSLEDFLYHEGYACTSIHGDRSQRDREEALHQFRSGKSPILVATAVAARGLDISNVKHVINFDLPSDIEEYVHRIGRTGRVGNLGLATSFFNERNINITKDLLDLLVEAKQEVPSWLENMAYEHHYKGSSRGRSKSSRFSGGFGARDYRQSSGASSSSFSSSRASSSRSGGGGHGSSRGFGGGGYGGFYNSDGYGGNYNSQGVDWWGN

[3] = Metabolic stability in human liver microsomes assessed as parent compound remaining measured after 60 mins by LC-UV-MS analysis; type: ADME, Microsome; settings: read-out: Stabilty
[4] = Apparent permeability of compound incubated for 5 hrs by PAMPA assay; type: ADME
[5] = Toxicity in BALB/c mouse assessed as effect on brain at 32 mg/kg, iv administered three times a week for 3 weeks by hematoxylin and eosin staining based microscopic imaging analysis; type: organism-based; settings: in vivo, 504 h
[6] = Toxicity in BALB/c mouse assessed as reduction in body weight at 32 mg/kg, iv administered three times a week for 3 weeks; type: organism-based; settings: in vivo, 504 h
[7] = test system: Human immunodeficiency virus 1; experiment: as §1, with “7400 harboring nucleos(t)ide reverse transcriptase M41L/E44D/D67N/T69D/M184VL210W/T215Y mutant” for “NL4-3”; type: functional, organism-based; settings: Human immunodeficiency virus 1, 7400
[8] = Observed clearance in BALB/c mouse at 16 mg/kg, iv measured upto 24 hrs by HPLC-MS analysis; type: ADME, organism-based; settings: in vivo
[9] = Observed volume of distribution at steady state in BALB/c mouse at 16 mg/kg, iv measured upto 24 hrs by HPLC-MS analysis; type: ADME, organism-based; settings: in vivo, read-out: Vdss
[10] = AUC (0 to t) in BALB/c mouse at 32 mg/kg, iv measured upto 24 hrs by HPLC-MS analysis; type: ADME, organism-based; parameters: route intravenous, dose 32 mg/kg, time <=24; settings: in vivo
[11] = Toxicity in BALB/c mouse assessed as effect on kidney at 32 mg/kg, iv administered three times a week for 3 weeks by hematoxylin and eosin staining based microscopic imaging analysis; type: organism-based; settings: in vivo, 504 h
[12] = Observed clearance in BALB/c mouse at 8 mg/kg, iv measured upto 24 hrs by HPLC-MS analysis; type: ADME, organism-based; settings: in vivo
[13] = (§2) Selectivity index, ratio of IC50 for antiviral activity against HIV-1 7400 harboring nucleos(t)ide reverse transcriptase M41L/E44D/D67N/T69D/M184VL210W/T215Y mutant infected in human TZM-bl cells infected with supernatants from virus-infected human H9 cells to IC50 for antiviral activity against HIV-1 […] infected in human TZM-bl cells infected with supernatants from virus-infected human H9 cells; type: functional, Human immunodeficiency virus 1
[14] = test system: Human immunodeficiency virus 1; experiment: as §1, with “12231 harboring non-nucleoside reverse transcriptase K103N/V179F/Y181C mutant” for “NL4-3”; type: functional, organism-based; settings: Human immunodeficiency virus 1, 12231
[15] = Half life in BALB/c mouse at 16 mg/kg, iv measured upto 24 hrs by HPLC-MS analysis; type: ADME, organism-based; settings: in vivo
[16] = Observed AUC (0 to infinity) in BALB/c mouse at 32 mg/kg, iv measured upto 24 hrs by HPLC-MS analysis; type: ADME, organism-based; parameters: route intravenous, dose 32 mg/kg, time <=24; settings: in vivo
[17] = Toxicity in BALB/c mouse assessed as organism death at 32 mg/kg, iv administered three times a week for 3 weeks; type: organism-based; settings: in vivo, 504 h
[18] = Cmax in BALB/c mouse at 8 mg/kg, iv measured upto 24 hrs by HPLC-MS analysis; type: ADME, organism-based; parameters: route intravenous, dose 8 mg/kg, time <=24; settings: in vivo
[19] = as §2, with “12231” for “7400”, “non-nucleoside” for “nucleos(t)ide”, “K103N/V179F/Y181C” for “M41L/E44D/D67N/T69D/M184VL210W/T215Y”; type: functional, Human immunodeficiency virus 1
[20] = Observed AUC (0 to infinity) in BALB/c mouse at 16 mg/kg, iv measured upto 24 hrs by HPLC-MS analysis; type: ADME, organism-based; parameters: route intravenous, dose 16 mg/kg, time <=24; settings: in vivo
[21] = Observed AUC (0 to infinity) in BALB/c mouse at 8 mg/kg, iv measured upto 24 hrs by HPLC-MS analysis; type: ADME, organism-based; parameters: route intravenous, dose 8 mg/kg, time <=24; settings: in vivo
[22] = Drug excretion in BALB/c mouse at 16 to 32 mg/kg, iv measured upto 24 hrs; type: ADME, organism-based; settings: in vivo, dose 16-32 mg/kg, read-out: Drug excretion
[23] = test system: Human immunodeficiency virus 1; experiment: as §1, with “11847 harboring integrase G140S/Q148H mutant” for “NL4-3”; type: functional, organism-based; settings: Human immunodeficiency virus 1, 11847
[24] = Drug uptake in BALB/c mouse spleen at 16 to 32 mg/kg, iv measured upto 24 hrs; type: ADME, organism-based; settings: in vivo, dose 16-32 mg/kg
[25] = as §2, with “11847” for “7400”, “integrase G140S/Q148H” for “nucleos(t)ide reverse transcriptase M41L/E44D/D67N/T69D/M184VL210W/T215Y”; type: functional, Human immunodeficiency virus 1
[26] = Toxicity in BALB/c mouse assessed as effect on liver at 32 mg/kg, iv administered three times a week for 3 weeks by hematoxylin and eosin staining based microscopic imaging analysis; type: organism-based; settings: in vivo, 504 h
[27] = Drug uptake in BALB/c mouse brain at 16 to 32 mg/kg, iv measured upto 24 hrs; type: ADME, organism-based; settings: in vivo, dose 16-32 mg/kg
[28] = test system: Human immunodeficiency virus 1; experiment: as §1, with “11808 harboring protease V32I/I54V/I84V/L90M mutant” for “NL4-3”; type: functional, organism-based; settings: Human immunodeficiency virus 1, 11808
[29] = AUC (0 to t) in BALB/c mouse at 16 mg/kg, iv measured upto 24 hrs by HPLC-MS analysis; type: ADME, organism-based; parameters: route intravenous, dose 16 mg/kg, time <=24; settings: in vivo
[30] = Plasma concentration in BALB/c mouse at 16 to 32 mg/kg, iv measured after 24 hrs; type: ADME, organism-based; settings: dose 16-32 mg/kg
[31] = Half life in BALB/c mouse at 8 mg/kg, iv measured upto 24 hrs by HPLC-MS analysis; type: ADME, organism-based; settings: in vivo
[32] = Cmax in BALB/c mouse at 32 mg/kg, iv measured upto 24 hrs by HPLC-MS analysis; type: ADME, organism-based; parameters: route intravenous, dose 32 mg/kg, time <=24; settings: in vivo
[33] = Tmax in BALB/c mouse at 16 to 32 mg/kg, iv measured upto 24 hrs; type: ADME, organism-based; settings: in vivo, dose 16-32 mg/kg
[34] = AUC (0 to t) in BALB/c mouse at 8 mg/kg, iv measured upto 24 hrs by HPLC-MS analysis; type: ADME, organism-based; parameters: route intravenous, dose 8 mg/kg, time <=24; settings: in vivo
[35] = Observed volume of distribution at steady state in BALB/c mouse at 8 mg/kg, iv measured upto 24 hrs by HPLC-MS analysis; type: ADME, organism-based; settings: in vivo, read-out: Vdss
[36] = Cmax in BALB/c mouse at 16 mg/kg, iv measured upto 24 hrs by HPLC-MS analysis; type: ADME, organism-based; parameters: route intravenous, dose 16 mg/kg, time <=24; settings: in vivo
[37] = as §2, with “11808” for “7400”, “protease V32I/I54V/I84V/L90M” for “nucleos(t)ide reverse transcriptase M41L/E44D/D67N/T69D/M184VL210W/T215Y”; type: functional, Human immunodeficiency virus 1
[38] = Half life in BALB/c mouse at 32 mg/kg, iv measured upto 24 hrs by HPLC-MS analysis; type: ADME, organism-based; settings: in vivo
[39] = Plasma concentration in BALB/c mouse at 16 to 32 mg/kg, iv measured after 240 mins; type: ADME, organism-based; settings: dose 16-32 mg/kg

Structure (SMILES): CCCCc1cn(-c2ccc(NC(=O)Nc3cc(O[C@H]4O[C@@H](CO)[C@H](O)[C@@H]4O)ccc3C)cc2)nn1
- pIC50 [1]: < 4.30
- IC50 [2]: Not Active

Structure (SMILES): CCOP(=O)(OCC)OCCc1cn(-c2ccc(NC(=O)Nc3ccccc3C)cc2)nn1
- pIC50 [1]: < 4.30
- remaining at 1 h [3]: 53.7%
- Papp at 5 h [4]: 0.72 ×10⁻⁶ cm/s

Structure (SMILES): CCCCc1cn(-c2ccc(NC(=O)Nc3cc(OC4CCCC4)ccc3C)cc2)nn1
- pIC50 [1]: 6.70
- pIC50 [2]: 6.85
- remaining at 1 h [3]: 92.5%
- Papp at 5 h [4]: 1.96 ×10⁻⁶ cm/s

Structure (SMILES): Cc1ccccc1NC(=O)Nc1ccc(-n2cc(CCN3CCOCC3)nn2)cc1
- pIC50 [2]: 4.22

Structure (SMILES): CCCCc1cn(-c2ccc(NC(=O)Nc3cccc4cnccc34)cc2)nn1
- pIC50 [1]: 5.66
- pIC50 [2]: 6.82
- remaining at 1 h [3]: 95.2%
- Papp at 5 h [4]: < 0.1 ×10⁻⁶ cm/s

Structure (SMILES): Cc1ccccc1NC(=O)Nc1ccc(-n2cc(CN3CCOCC3)nn2)cc1
- IC50 [2]: Not Active

Structure (SMILES): Cc1ccccc1NC(=O)Nc1ccc(-n2cc(CCCN3CCOCC3)nn2)cc1
- pIC50 [2]: 4.27

Structure (SMILES): CC(C)CCc1cn(-c2ccc(NC(=O)Nc3cccc4cnccc34)cc2)nn1
- Activity [5]: Non-Toxic
- Activity [6]: Non-Toxic
- pIC50 [7]: 5.74
- clearance [8]: 8 mL/min/kg
- Vd [9]: 7 L/kg
- AUC(0-t) at 24 h [10]: 98500 ng·h/mL
- Activity [11]: Non-Toxic
- clearance [12]: 4.3 mL/min/kg
- Ratio IC50 [13]: 0.8
- pIC50 [1]: 5.68
- pIC50 [2]: 6.92
- pIC50 [14]: 5.74
- half-life [15]: 7.76 h
- remaining at 1 h [3]: 89.7%
- AUC [16]: 6114.4 µg·min/mL
- Activity [17]: Non-Toxic
- Cmax [18]: 5500 ng/mL
- Ratio IC50 [19]: 0.8
- AUC(0-inf) [20]: 25700 ng·h/mL
- AUC(0-inf) [21]: 30700 ng·h/mL
- dose excreted at 24 h [22]: 100%
- pIC50 [23]: 5.82
- Drug uptake [24]: Active
- Ratio IC50 [25]: 0.7
- Activity [26]: Non-Toxic
- Drug uptake [27]: Not Active
- pIC50 [28]: 5.64
- AUC(0-t) at 24 h [29]: 23700 ng·h/mL
- concentration at 24 h [30]: 2 µM
- half-life [31]: 8.97 h
- Cmax [32]: 44400 ng/mL
- Tmax [33]: 1 h
- AUC(0-t) at 24 h [34]: 25600 ng·h/mL
- Vd [35]: 3.4 L/kg
- Cmax [36]: 15800 ng/mL
- Papp at 5 h [4]: 0.18 ×10⁻⁶ cm/s
- Ratio IC50 [37]: 1.1
- t1/2 [38]: 4.682 h
- concentration at 4 h [39]: 10 µM

Structure (SMILES): O=C(Nc1ccc(-n2cc(CCO[C@H]3O[C@@H](CO)[C@H](O)[C@@H]3O)nn2)cc1)Nc1ccccc1C(F)(F)F
- IC50 [2]: Not Active

Structure (SMILES): CC(C)CC(=O)OCCc1cn(-c2ccc(NC(=O)Nc3ccccc3C(F)(F)F)cc2)nn1
- pIC50 [1]: < 4.30
- remaining at 1 h [3]: 49.3%
- Papp at 5 h [4]: 4.24 ×10⁻⁶ cm/s

Structure (SMILES): O=C(Nc1ccc(-n2cc(CCO)nn2)cc1)Nc1ccccc1C(F)(F)F
- pIC50 [1]: < 4.30
- pIC50 [2]: 4.95

Structure (SMILES): CCCCc1cn(-c2ccc(NC(=O)Nc3cc(OP(=O)(OCC)OCC)ccc3C)cc2)nn1
- pIC50 [1]: 5.26
- pIC50 [2]: 6.03
- remaining at 1 h [3]: 85.2%
- Papp at 5 h [4]: 0.68 ×10⁻⁶ cm/s

Structure (SMILES): CCCCc1cn(-c2ccc(NC(=O)Nc3cc(OC4CCOC4)ccc3C)cc2)nn1 (centres undefined)
- pIC50 [1]: 5.59
- pIC50 [2]: 7.00

Structure (SMILES): CCOC(=O)CCc1cn(-c2ccc(NC(=O)Nc3ccccc3C(F)(F)F)cc2)nn1
- pIC50 [1]: < 4.30
- pIC50 [2]: 5.69
- remaining at 1 h [3]: 16.9%
- Papp at 5 h [4]: 1.56 ×10⁻⁶ cm/s

Other lines, results leading:

- pIC50 [1]: 5.95
Structure (SMILES): CCCCc1cn(-c2ccc(NC(=O)Nc3ccccc3C)cc2)nn1

- pIC50 [2]: 6.31
Structure (SMILES): CCCCc1cn(-c2ccc(NC(=O)Nc3cc(O)ccc3C)cc2)nn1

- pIC50 [2]: 6.09
Structure (SMILES): CCCCc1cn(-c2ccc(NC(=O)Nc3cc(OCOC)ccc3C)cc2)nn1

- pIC50 [2]: 5.60
Structure (SMILES): CCCCc1cn(-c2ccc(NC(=O)Nc3cc(CCC(C)=O)ccc3C)cc2)nn1

- pIC50 [2]: 4.89
Structure (SMILES): Cc1ccccc1NC(=O)Nc1ccc(-n2cc(CCO)nn2)cc1

- remaining at 1 h [3]: 94.2%
Structure (SMILES): COCCc1cn(-c2ccc(NC(=O)Nc3ccccc3C)cc2)nn1

- pIC50 [1]: 5.42
- pIC50 [2]: 5.82
Structure (SMILES): CCOCc1cn(-c2ccc(NC(=O)Nc3cc(C(C)C)ccc3C)cc2)nn1
